The source of these data is patent US10519111B2, “UV absorbing compounds, compositions comprising same and uses thereof” (CORAL SUNSCREEN PTY LTD, priority 2013, dated 2019).

A short description of data set [1]: UV absorption properties (λmax, molar extinction coefficient ε, efficiency E 1%, 1 cm). Type of data set: physicochemical. To be noted: for ε (molar extinction coefficient) / E (1%, 1 cm) / ε: values in order of the λmax values; for λmax / E (1%, 1 cm) / ε: Table 13B; for λmax: miscellaneous compounds; for ε: in M-1 cm-1.
Data set [2] can be described thus: Critical wavelength (λcrit), approximate in-house measurement. It is filed as physicochemical. The conditions noted are these: for λcrit: Table 13B. An excerpt: As the precise test for critical wavelength was unable to be replicated exactly by the inventors due to the need for specialist equipment and a specific calibration of the spectrophotometer, these values are only approximate to a degree. […] This represents a highly useful result and so, compounds based around this benzoyl substitution pattern shown, are especially preferred.

For data set [3] the following is noted: literature value, standardised test; cited from earlier work.
A short description of a further data set: Photostability. Type of data set: physicochemical. To be noted: Table 13B.

For the compound `CC1(C)CCN(C(C)(C)C)C=C1C(=O)c1ccc(C(=O)C2=CN(C(C)(C)C)CCC2(C)C)cc1` [Compound 159, 1,4-phenylenebis((1-(tert-butyl)-4,4-dimethyl-1,4,5,6-tetrahydropyridin-3-yl)methanone)], the melting point (in general, the temperature of the solid-liquid transition) is 243 °C (dec.). In data set [1], the “UV λmax” value is 317 nm and the “ε (molar extinction coefficient)” value turned out to be 33982 M⁻¹ cm⁻¹.

For `COc1ccc(C(=O)CC(=O)c2ccc(C(C)(C)C)cc2)cc1` [Avobenzone, reference compound], the critical wavelength in data set [2] (values only approximate) came to 378 nm. Besides, the “critical wavelength, reported” value in data set [3] is 380 nm.

As to `CC(C)(C)Oc1ccc(C(=O)C2=CN(C(C)(C)C)CCC2(C)C)cc1` [Compound 158, (4-(tert-butoxy)phenyl)(1-(tert-butyl)-4,4-dimethyl-1,4,5,6-tetrahydropyridin-3-yl)methanone], the melting point was in the range of 98 to 101 °C. Also, in data set [1], the “UV λmax” value is recorded as 317 nm and the “ε (molar extinction coefficient)” value was found to be 32556 M⁻¹ cm⁻¹.

`CC1(C)CCN(C(C)(C)C)C=C1C(=O)c1ccc(C(=O)O)cc1` [Compound 160, 4-(1-(tert-butyl)-4,4-dimethyl-1,4,5,6-tetrahydropyridine-3-carbonyl)benzoic acid] gave a melting point of 80 to 83 °C. In addition, in data set [1], the “UV λmax” value was determined as 317 nm and the “ε (molar extinction coefficient)” value was found to be 17300 M⁻¹ cm⁻¹.

`CN(C)c1ccc(C(=O)C2=CN(C(C)(C)C)CCC2(C)C)cc1` [Compound 157, (1-(tert-butyl)-4,4-dimethyl-1,4,5,6-tetrahydropyridine-3-yl)(4-(dimethylamino)phenyl)methanone]: the melting point is 162 to 163 °C. Further, in data set [1], the “UV λmax” value was 333 nm and the “ε (molar extinction coefficient)” value is 24966 M⁻¹ cm⁻¹.

In the case of `Cc1cc(C)c(C(=O)C2=CN(C(C)(C)C)CCC2(C)C)c(C)c1`, in data set [2], the λcrit is recorded as 326 nm. Further, in data set [1], the λmax is recorded as 311 nm; the “E (1%, 1 cm)” value came to 1084; the ε is reported as 33953. In “Photostability”, the “Photostability (%)” value came to 33%.

In data set [2], `CC(C)CN1C=C(C(=O)C(C)(C)C)C(C)(C)CC1` had a λcrit of 327 nm. In data set [1], the λmax came to 309 nm; the “E (1%, 1 cm)” value is reported as 1137; the ε was 28554. Moreover, the “Photostability (%)” value in “Photostability” came out at 60%.

`CC1(C)CCN(C(C)(C)C)C=C1C(=O)c1ccc(F)cc1`: the λcrit in data set [2] was 346 nm. Also, in data set [1], the λmax is listed as 316 nm; the “E (1%, 1 cm)” value is recorded as 655; the ε worked out at 20919. Also, the “Photostability (%)” value in “Photostability” was determined as 75%.

`CCCCC(CC)COC(=O)CCC(=O)C1=CN(c2ccc(N3C=C(C(=O)CCC(=O)OCC(CC)CCCC)C(C)(C)CC3)cc2)CCC1(C)C` (centres unmarked) yielded a λcrit in data set [2] of 379 nm. Moreover, in data set [1], the λmax worked out at 359 nm; the “E (1%, 1 cm)” value is 628; the ε is reported as 45301. In the data set “Photostability”, the “Photostability (%)” value was 52%.

As for `CC1(C)CCN(c2ccc(C(C)(C)C)cc2)C=C1C(OC(=O)C1c2ccccc2-c2ccccc21)=C1c2ccccc2-c2ccccc21` [Compound 206, (1-(4-(tert-butyl)phenyl)-4,4-dimethyl-1,4,5,6-tetrahydropyridin-3-yl)(9H-fluoren-9-ylidene)methyl 9H-fluorene-9-carboxylate], the melting point was determined as 145 °C. Besides, the “UV λmax” value in data set [1] was 407 nm.

In data set [2], `CC1(C)CCN(C(C)(C)C)C=C1C(=O)c1ccccn1` came in with a λcrit of 360 nm. Besides, in data set [1], the λmax came out at 317 nm; the “E (1%, 1 cm)” value is recorded as 635; the ε is 17272. Also, in the data set “Photostability”, the “Photostability (%)” value turned out to be 22%.
